Data reported in a compilation of properties of binary mixtures (doi:10.1016/j.fluid.2019.112324).

Test: xn = mol fraction of the nth substance listed
Settings: 100 kPa

CCCC(C)O (configuration not stated) + CCCCCC[n+]1ccn(C)c1.O=[N+]([O-])[O-]
x2 = 0
Settings | viscosity [mPa·s]
293.15 K | 3.97
298.15 K | 3.32
303.15 K | 2.81
308.15 K | 2.37
313.15 K | 1.99
318.15 K | 1.66

CCCCCC[n+]1ccn(C)c1.O=[N+]([O-])[O-] + CCCC(C)O
viscosity [mPa·s]
Settings | 293.15 K | 298.15 K | 303.15 K | 308.15 K | 313.15 K | 318.15 K | 323.15 K
x1 = 0.0814 | 8.28 | 6.18 | – | 3.48 | – | 2.12 | –
x1 = 0.1609 | 14.69 | – | 7.26 | 5.08 | 3.72 | 2.81 | 2.11
x1 = 0.2408 | – | 16.18 | 11.09 | 7.43 | 5.31 | 3.76 | 2.74
x1 = 0.3491 | 42.8 | 29 | 19.05 | 12.22 | 8.55 | 5.85 | 4.09
x1 = 0.4393 | 69 | 44.8 | 29.4 | 18.45 | 12.22 | 8.65 | 6.05
x1 = 0.5608 | 122.5 | 79.4 | 50.9 | 32 | 21.2 | 14.52 | 10.28
x1 = 0.6509 | 177 | 117.2 | 76.9 | 49.3 | 33 | 22.4 | –
x1 = 0.7401 | – | 173.4 | – | – | 50.1 | 34.9 | 25.8
x1 = 0.8508 | – | 285 | 189 | 125.3 | 85.7 | 61.8 | 47.3
x1 = 0.9393 | 614 | 416 | 282 | 195 | 136.2 | 99.7 | 76.9
x1 = 1 | 804 | 545 | 369 | 258 | 186 | 140.2 | –
